Experiments:
[1] = test system: M. trichosporium OB3b culture; assay: CP exposure of culture immobilized in alginate beads, sequencing batch reactors; type: cell-based; conditions: for MeOH Accumulation Efficiency (MeOH accumulation/CH4 consumed): initial 24 hours of incubation with CH4
Description: In some embodiments, M. trichosporium OB3b culture was immobilized in alginate beads. M. trichosporium OB3b culture expressing sMMO was harvested and suspended to a final density of 10 g cell protein/L in 2% alginate. The alginate/cell mixture was extruded through a syringe needle into 100 mM CaCl2 to crosslink the alginate matrix, forming stable beads. Beads were rinsed with dH2O and re-suspended in 1/10 strength (dilute) growth media. M. trichosporium OB3b culture prepared this way is ideal for experimental manipulation such as CH4 or MeOH rate determinations after inhibitor exposure because beads can be quickly rinsed to remove trace inhibitor. OB3b culture immobilized in alginate in this way maintained activity for >7 days.
A chemostat grown, sMMO expressing, M. trichosporium OB3b culture was immobilized in alginate beads, and exposed to CP for 2, 6, and 18 hours in the absence of CH4. After inhibition, the consumption of CH4 and accumulation of MeOH was monitored in the presence and absence of 20 mM formate in sequencing batch reactors (FIGS. 37A-37C). Alginate beads were rinsed, at 24 hour intervals, before suspension in fresh media plus CH4. There was no significant difference: i) in the rate of methane consumption in the treatments that were exposed to CP for 2, 6 or 18 h (p>0.5, 30-80 μmol CH4 consumed/d, Table 2); ii) in the efficiency of MeOH accumulation in any of the treatments (Table 2); and, in the effect of formate on MeOH accumulation (P>0.18) for any exposure time, probably due to lack of complete MDH inhibition (Table 3). It was also observed that MeOH accumulated to a greater degree during days 2 and 3 in treatments after 6 or 18 hours of CP exposure.

OB3b expressing sMMO = assay: Packed bed reactor with cyclopropane inhibitor; type: cell-based, Methylosinus trichosporium (OB3b)
Description: A Packed Bed Reactor was used to evaluate the conversion of methane to methanol by cell of OB3b expressing sMMO. […] Cyclopropanol is expected to be produced via oxidation of cyclopropane by MMO in this example.
A continuous flow PBR was constructed using a glass HPLC column with the dimensions 2.5 cm ID and 13 cm packing height. Methane, oxygen, and the inhibitor feed solutions dissolved in media were contained within the two 100 mL syringes. The column was packed with alginate beads with sMMO-expressing OB3b formed in-situ under aseptic conditions Immobilized culture performance was evaluated in the PBR over a range of flow rates to achieve reactor residence times (τ) ranging from 0.2, 0.3, 0.5, and 8.5 hours. Two separate experiments were carried out, one for methane transformation (conversion) without the cyclopropane inhibitor and the other with the inhibitor (FIG. 26). For the methane utilization studies, the influent solution was developed by adding 7 mL methane and 21 mL oxygen to the 100 ml syringes. For the inhibition studies 1 ml of cyclopropane was added. After equilibration for 20 minutes, the gases were ejected from the syringes, and the syringes connected to the column inlet.
An integrated form of the Monod equation was used to analyze the results from the PBR experiment. It relates substrate conversion across a packed bed reactor, X, to the residence time, τ (min), and initial substrate concentration So (mg/L).
The solids lines in FIG. 26 were computed with the integrated Monod model using the Ks and kmax obtained from the batch data. The simulation used an effectiveness factor (η) of 1 indicating no loss in cell activity. Good fit was obtained between the simple analytical solution, equation above, and the experimental observations for the uninhibited case. The maximum conversion was 95±0.8% at a τ of 8 hours. For the cyclopropane inhibition embodiment, the same kmax as non-inhibited case was used, but with a Ks four times the uninhibited case to investigate the plausibility of competitive inhibition.

In the case of `C1CC1` [CP, cyclopropane], the “Rates of MeOH consumption, Post Exposure” value ([1]; CP exposure 2 h) is reported as 0.4 (0.0) μmol/h/mg protein, the “MeOH Accumulation Efficiency (MeOH accumulation/CH4 consumed)” value (“MeOH Accumulation Efficiency” below) ([1]; CP exposure 2 h) is reported as 19 (4) % and the “Rates of MeOH consumption, Post Exposure” value ([1]; CP exposure 6 h) is reported as 0.6 (0.1) μmol/h/mg protein. The “MeOH Accumulation Efficiency” value ([1]; CP exposure 6 h) was 43 (1) %, the “Rates of MeOH consumption, Post Exposure” value ([1]; CP exposure 18 h) was 0.3 (0.1) μmol/h/mg protein and the “MeOH Accumulation Efficiency” value ([1]; CP exposure 18 h) was 13 (1) %. The “rate of methane consumption” value ([1]; treatments exposed to CP for 2, 6 or 18 h) was 30-80 μmol CH4 consumed/d, the “effect on methane transformation” value (OB3b expressing sMMO; cyclopropane-amended column vs uninhibited) was “Inhibition of methane transformation was observed” and the Methane conversion (OB3b expressing sMMO; residence time 4 hours) was 68±11%. The “methanol production selectivity (percentage of methane converted to methanol)” value (OB3b expressing sMMO; residence time 4 hours) was 102±39%, the Methane conversion (OB3b expressing sMMO; residence time 8 hours) was 95±1% and the “methanol production selectivity (percentage of methane converted to methanol)” value (OB3b expressing sMMO; residence time 8 hours) was 91±32%.
